Where a SMILES comes first, the peptide text is derived from it.
Assays:
[1] = test system: Botrytis cinerea; assay: MIC of NCR13 and alanine scanning variants, 96-well plate / resazurin assay; assay type: cell-based; conditions: 48 h
Procedure: Antifungal activity of NCR13_AlaV1-V5 was assessed at different concentrations using a 2-fold dilution series of each peptide. Antifungal activity of each peptide was determined spectrophotometrically using the 96-well plate assay. Around 45 μL of each peptide at different concentrations was added to each well of the microtiter plate containing 45 μL of ˜[…] spore suspension. The quantitative fungal growth inhibition was determined by measuring the absorbance at 595 nm using a (Tecan Infinite M200 ProTecan Systems Inc., San Jose, CA) microplate reader after 48 h. The fungal cell viability was determined by the resazurin cell viability assay. After incubation of the pathogen/peptide mixture for 48 h, 10 μl of 0.1% resazurin solution was added to each well. After incubation of the mixture overnight, a change in the color of the resazurin dye from blue to pink or colorless indicated the presence of live fungal cells. The MIC for each peptide was the lowest concentration of each peptide at which no change in blue color occurred.

[2] = test system: Botrytis cinerea T-4; assay: MIC determination, 96-well plate assay with resazurin cell viability readout; assay type: cell-based
Procedure: The fungal strain of Botrytis cinerea T-4 was cultured on V8 agar plates. Fungal spores were harvested by flooding the fungal growth plates with sterile water. The spore suspension was filtered through two layers of Miracloth, centrifuged at 13,600 rpm for 1 min, washed, and re-suspended in low-salt Synthetic Fungal Medium (SFM) (U.S. Pat. No. 6,316,407, incorporated herein by reference in its entirety). The spore suspension was adjusted to the desired spore count using a hemocytometer.
Antifungal activity of NCR13_V7 (SEQ ID NO: 9) and NCR13_V9 (SEQ ID NO: 11) was assessed at different concentrations using a 2-fold dilution series of each peptide. Antifungal activity of each peptide was determined spectrophotometrically using the 96-well plate assay (Kereszt et al., Front. Plant Sci. 9, 1026 (2018)). Around 45 μL of each peptide at different concentrations was added to each well of the microtiter plate containing 45 μL of ˜10^5 spores/ml spore suspension. The quantitative fungal growth inhibition was determined by measuring the absorbance at 595 nm using a (Tecan Infinite M200 ProTecan Systems Inc., San Jose, CA) microplate reader after 48 h. The fungal cell viability was determined by the resazurin cell viability assay (Tiricz et al., Appl. Environ. Microbiol. 79, 6737-6746 (2013);. Balogh et al., Acta Microbiol. Immunol. Hung. 61, 229-239 (2014)). […]

[3] = test system: B. cinerea; assay: Semi-in planta drop-inoculation antifungal assay on detached N. benthamiana leaves (gray mold); assay type: in vivo, Botrytis cinerea on Nicotiana benthamiana; conditions: B. cinerea spores, peptide 0.75, 1.5, 3 and 6 μM, 48 h

Compound | MIC (μM) Botrytis cinerea [1] | fold higher antifungal activity than NCR13_V7 ([2]; B. cinerea in SFM) | MIC (μM) in SFM ([2]; B. cinerea, low-salt Synthetic Fungal Medium (SFM), 48 h) | reduction of lesion size [3]
TKPCQSDKDCAAAACRKPKVPKCINGFCKCVR [NCR13_AlaV2] | Inactive | – | – | –
CC[C@H](C)[C@H](NC(=O)[C@H](CS)NC(=O)[C@H](C)NC(=O)[C@H](C)NC(=O)[C@H](C)NC(=O)[C@H](CCCCN)NC(=O)[C@@H]1CCCN1C(=O)[C@H](CCCCN)NC(=O)[C@H](CCCNC(=N)N)NC(=O)[C@H](CS)NC(=O)[C@H](C)NC(=O)[C@H](Cc1ccccc1)NC(=O)[C@H](CCCCN)NC(=O)[C@H](CCCCN)NC(=O)[C@H](CS)NC(=O)[C@H](CC(=O)O)NC(=O)[C@H](CCCCN)NC(=O)[C@H](CC(=O)O)NC(=O)[C@H](CO)NC(=O)[C@H](CCC(N)=O)NC(=O)[C@H](CS)NC(=O)[C@@H]1CCCN1C(=O)[C@H](CCCCN)NC(=O)[C@@H](N)[C@@H](C)O)C(=O)N[C@@H](CC(N)=O)C(=O)NCC(=O)N[C@@H](Cc1ccccc1)C(=O)N[C@@H](CS)C(=O)N[C@@H](CCCCN)C(=O)N[C@@H](CS)C(=O)N[C@H](C(=O)N[C@@H](CCCNC(=N)N)C(=O)O)C(C)C [NCR13_AlaV4] (H-TKPCQSDKDCKKFACRKPKAAACINGFCKCVR-OH; N-terminus and C-terminus assumed) | Inactive | – | – | –
TKPCQSDKDCKKFACAAAAVPKCINGFCKCVR [NCR13_AlaV3] | Inactive | – | – | –
N=C(N)NCCC[C@H](NC(=O)[C@H](CS)NC(=O)[C@H](Cc1c[nH]c2ccccc12)NC(=O)[C@H](Cc1ccccc1)NC(=O)[C@H](CCCCN)NC(=O)[C@@H](N)CCCCN)C(=O)N[C@@H](CCCCN)C(=O)N1CCC[C@H]1C(=O)N[C@@H](CCCCN)C(=O)N[C@@H](Cc1c[nH]c2ccccc12)C(=O)N1CCC[C@H]1C(=O)N[C@@H](CCCCN)C(=O)N[C@@H](CS)C(N)=O [NCR13_V9, KKFWCRKPKWPKC-NH2] (H-KKFWCRKPKWPKC-NH2; N-terminus assumed) | – | 2 fold | 1.5 µM | reduced the lesion sizes greater than NCR13_V7

— patent US20260139005A1 (priority 2022, published 2026)
